“And” between values parts separate entries of the source, which are not always exact repeats. Identical values can stand only once.
Columns and labels:
E. coli = assay: Iodine Disinfection of E. coli; type: cell-based, Escherichia coli; settings: ambient (˜23° C.); for Raw counts, Average / Raw counts, Treated Rep.: undiluted/10 mL analyzed
Source text: (§1) At CT values of 50, the Log 10 reductions were greater than 8.0. CT is a common measurement unit referring to concentration in parts per million multiplied by time (in minutes). CFU is known as colony forming units per milliliter. […] See references: Block, S. S., 1977. Disinfection, Sterilization and Preservation. Lea & Febiger, Philadelphia. 2nd edition.

E. faecalis = assay: Iodine Disinfection of E. faecalis; type: cell-based, Enterococcus faecalis; settings: ambient (˜23° C.)
Source text: as §1

P. aeruginosa = assay: Iodine Disinfection of P. aeruginosa; type: cell-based, Pseudomonas aeruginosa; settings: ambient (˜23° C.); for Raw counts, Average / Raw counts, Treated Rep.: undiluted/10 mL analyzed
Source text: as §1

[1] = test system: Escherichia coli, Pseudomonas aeruginosa and, Enterococcus faecalis; assay: Iodine disinfection of bacteria, summary by CT value; type: cell-based; settings: CT values of 50 (ppm x min)
Source text: as §1

[2] = test system: waterborne microbial contamination; settings: 3-4 ppm for 12 min at 24° C. (CT value of about 48); cited from earlier work
[3] = 5 mg/L 5 min, undiluted/10 mL analyzed
[4] = 5 mg/L 10 min, undiluted/10 mL analyzed
[5] = 15 mg/L 5 min, undiluted/10 mL analyzed

II
Log10/mL (E. coli; 5 mg/L 5 min): 1.2 Log10/mL | Log10 removal (E. coli; 5 mg/L 5 min): 5.7 Log10 | cfu/mL, Average (E. coli; 5 mg/L 5 min): 1.7 × 10^1 cfu/mL | Raw counts, Average (E. coli; 5 mg/L 5 min): 175 | Raw counts, Treated Rep. (E. coli; 5 mg/L 5 min): 171 and 168 and 185 | Log10/mL (E. coli; 5 mg/L 10 min): <−1.0 Log10/mL | Log10 removal (E. coli; 5 mg/L 10 min): >8.0 Log10 | cfu/mL, Average (E. coli; 5 mg/L 10 min): <0.1 cfu/mL | Raw counts, Average (E. coli; 5 mg/L 10 min): 0 | Raw counts, Treated Rep. (E. coli; 5 mg/L 10 min): 0 | Log10/mL (E. coli; 5 mg/L 15 min): <−1.0 Log10/mL | Log10 removal (E. coli; 5 mg/L 15 min): >8.0 Log10 | cfu/mL, Average (E. coli; 5 mg/L 15 min): <0.1 cfu/mL | Raw counts, Average (E. coli; 5 mg/L 15 min): 0 | Raw counts, Treated Rep. (E. coli; 5 mg/L 15 min): 0 | Log10/mL (E. coli; 15 mg/L 5 min): <−1.0 Log10/mL | Log10 removal (E. coli; 15 mg/L 5 min): >8.0 Log10 | cfu/mL, Average (E. coli; 15 mg/L 5 min): <0.1 cfu/mL | Raw counts, Average (E. coli; 15 mg/L 5 min): 0 | Raw counts, Treated Rep. (E. coli; 15 mg/L 5 min): 0 | Log10/mL (E. faecalis; 5 mg/L 5 min): 0.6 Log10/mL | Log10 removal (E. faecalis; 5 mg/L 5 min): 6.2 Log10 | cfu/mL, Average (E. faecalis; 5 mg/L 5 min): 3.9 × 10^0 cfu/mL | Raw counts, Average (E. faecalis; [3]): 39 | Raw counts, Treated Rep. (E. faecalis; [3]): 49 and 38 and 31 | Log10/mL (E. faecalis; 5 mg/L 10 min): <−1.0 Log10/mL | Log10 removal (E. faecalis; 5 mg/L 10 min): >7.8 Log10 | cfu/mL, Average (E. faecalis; 5 mg/L 10 min): <0.1 cfu/mL | Raw counts, Average (E. faecalis; [4]): 0 | Raw counts, Treated Rep. (E. faecalis; [4]): 0 | Log10/mL (E. faecalis; 5 mg/L 15 min): <−1.0 Log10/mL | Log10 removal (E. faecalis; 5 mg/L 15 min): >7.8 Log10 | Raw counts, Average (E. faecalis; 5 mg/L 15 min): 0 | Raw counts, Treated Rep. (E. faecalis; 5 mg/L 15 min): 0 | cfu/mL, Average (E. faecalis; 5 mg/L 15 min): <0.1 cfu/mL | Log10/mL (E. faecalis; 15 mg/L 5 min): <−1.0 Log10/mL | Log10 removal (E. faecalis; 15 mg/L 5 min): >7.8 Log10 | cfu/mL, Average (E. faecalis; 15 mg/L 5 min): <0.1 cfu/mL | Raw counts, Average (E. faecalis; [5]): 0 | Raw counts, Treated Rep. (E. faecalis; [5]): 0 | Log10/mL (P. aeruginosa; 5 mg/L 5 min): 1.2 Log10/mL | Log10 removal (P. aeruginosa; 5 mg/L 5 min): 5.7 Log10 | cfu/mL, Average (P. aeruginosa; 5 mg/L 5 min): 1.7 × 10^1 cfu/mL | Raw counts, Average (P. aeruginosa; 5 mg/L 5 min): 175 | Raw counts, Treated Rep. (P. aeruginosa; 5 mg/L 5 min): 171 and 168 and 185 | Log10/mL (P. aeruginosa; 5 mg/L 10 min): <−1.0 Log10/mL | Log10 removal (P. aeruginosa; 5 mg/L 10 min): >7.9 Log10 | cfu/mL, Average (P. aeruginosa; 5 mg/L 10 min): <0.1 cfu/mL | Raw counts, Average (P. aeruginosa; 5 mg/L 10 min): 0 | Raw counts, Treated Rep. (P. aeruginosa; 5 mg/L 10 min): 0 | Log10/mL (P. aeruginosa; 5 mg/L 15 min): <−1.0 Log10/mL | Log10 removal (P. aeruginosa; 5 mg/L 15 min): >7.9 Log10 | cfu/mL, Average (P. aeruginosa; 5 mg/L 15 min): <0.1 cfu/mL | Raw counts, Average (P. aeruginosa; 5 mg/L 15 min): 0 | Raw counts, Treated Rep. (P. aeruginosa; 5 mg/L 15 min): 0 | Log10/mL (P. aeruginosa; 15 mg/L 5 min): <−1.0 Log10/mL | Log10 removal (P. aeruginosa; 15 mg/L 5 min): >7.9 Log10 | cfu/mL, Average (P. aeruginosa; 15 mg/L 5 min): <0.1 cfu/mL | Raw counts, Average (P. aeruginosa; 15 mg/L 5 min): 0 | Raw counts, Treated Rep. (P. aeruginosa; 15 mg/L 5 min): 0 | Log 10 reductions [1]: greater than 8.0 Log 10 | waterborne microbial contamination reduced [2]: ≥ 7 logs

From US20050109704A1, “Potable water delivery system with disinfection and residual discharge unit and method” (Pure H2O Bio-Technologies, Inc., priority 2003, published 2005)
